Assays:
Lmna G609G/+ mouse = assay: Histology analysis (Masson Trichrome, H&E); format: in vivo; settings: Lmna G609G/+ mice, oral 50 mg/kg daily, 8 weeks
Procedure: Tissue specimens were fixed in 4% PFA and embedded in paraffin. Paraffin blocks were sectioned and transferred onto adhesive-coated slides. After deparaffinization and rehydration, tissue sections were stained with Masson Trichrome. Histology analysis was performed by BioLead Inc. (Seoul, Korea).
Fig. S11. Histological analysis of age- matched Lmna+/+ mice (left), untreated Lamn G609G/+ mice (middle) and progerinin- treated LmnaG609G/+ mice (right, Lmna +/+: n = 4; un tr e at e d Lmna G609G/+: n = 6; pr o ge r in -treated LmnaG609G/+: n=6). A -C. Masson Trichrome staining for fibrosis analysis was performed after 8-week treatment. A. Reduction of fibrosis in heart after administration of progeirnin in L mn a G609G transgenic mice.
The collagen-rich fibrotic area (blue) is widely distributed in untreated LmnaG609G/+ mi c e compared to Lmna+/+ and progerin- treated LmnaG609G/+ mi c e. B. Fibrosis in liver of Lmna G609G transgenic mice was reduced by progerinin. C. Unt r eat ed LmnaG609G/+ mi c e show a relatively loose connection between blood vessel walls and tissues in lungs. D -E. Hematoxylin and Eosin (H&E) staining was performed to compare skin and bones of Lmna +/+ and LmnaG609G mice. Conditions of foot pad skin (D), vertebra (E), and femur (F) of Lmna +/+ and progerin-treated LmnaG609G/+ mice were better than those of untreated Lmna G609G/+ mice. […]

CYP2C9 = CYP2C9 (Homo sapiens, UniProt P11712); assay: CYP inhibition, CYP2C9; format: in vitro ADME; parameters: unit not given here
Procedure: At pre-set time-points, blood concentration of JH4 was determined by LC-MS/MS analysis[22],[23]. Other chemicals were also tested using similar protocol. In vitro ADME studies (plasma protein binding, CYP inhibition, microsomal stability, plasma stability, and hERG inhibition) were performed by New Drug Development Center (Daegu, Korea) using standard protocols[24],[25].

HGPS cells = assay: SA-β-gal staining senescence assay in HGPS cells; format: cell-based, human
Source text: Fig. S3. Chemical screening with JH4 derivatives (a total of 53 chemicals except JH010 and SLC -D011 were used). A. Summarized tables for effects of JH4 derivatives. ‘+’ means s t re ngt h of binding affinity or expression level after treatment of chemicals. Middle columns of tables show binding affinity between progerin and lamin A. Third columns of tables show level of progerin expression. […]
severe cytotoxicity (cell death or none). B , C, and D. Examples of screening based on pull-down assay. All chemicals were tested using GST pull-down assay. […]
inhibition activity than JH4. E. Generation of J H4 derivatives. To prevent rapid digestion in vivo, side chain was replaced by amide bond (J H010) or ether bond (SLC-D011).
H3K9me3 levels after treatment with J H010 and D011 in HGPS cells (n = 3 independent experiments; two- […]
with J H4, JH010, and SLC-D011 in HGPS cells (n = 3 independent experiments; two- tailed Student’s t- […]
fibroblasts from normal person and patients with HGPS (n = 3 independent experiments; two- tailed Student’s t -test), **p < 0.001, *p< 0.05. I. Transcriptional levels of progerin are not affected by treatment with SLC-D011. Total RNA was extracted after treatment with SLC-D011 for 7 days. The PCR products correspond to wild- type prelamin A and progerin transcripts. […]

Sequence of CYP2C9 (P11712 whole entry): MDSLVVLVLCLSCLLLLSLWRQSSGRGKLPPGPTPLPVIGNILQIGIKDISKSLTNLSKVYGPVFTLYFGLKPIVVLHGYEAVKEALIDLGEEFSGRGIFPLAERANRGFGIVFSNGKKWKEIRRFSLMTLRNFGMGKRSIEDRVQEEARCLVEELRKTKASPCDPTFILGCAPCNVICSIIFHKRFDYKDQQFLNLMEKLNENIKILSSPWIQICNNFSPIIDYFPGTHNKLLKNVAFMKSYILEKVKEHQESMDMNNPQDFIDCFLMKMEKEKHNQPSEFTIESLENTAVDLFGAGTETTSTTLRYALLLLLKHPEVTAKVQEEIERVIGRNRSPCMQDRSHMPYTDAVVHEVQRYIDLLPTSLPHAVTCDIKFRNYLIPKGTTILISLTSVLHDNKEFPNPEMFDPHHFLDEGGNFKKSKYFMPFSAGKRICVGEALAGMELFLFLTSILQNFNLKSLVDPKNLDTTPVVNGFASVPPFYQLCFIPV

CC1(C)Oc2cc3oc(=O)ccc3cc2C[C@@H]1OC/C=C/c1ccccc1 [SLC-D011]
Fibrosis in heart and liver (Masson Trichrome) (Lmna G609G/+ mouse): reduced
CYP inhibition (CYP2C9): 78.4
Cellular senescence (SA-β-gal staining) (HGPS cells): could block cellular senescence
